Data on five compounds can be found in patent US20200323999A1 (The Board of Trustees of the Leland Stanford Junior …, priority 2019, published 2020).

For data set [1] the following is noted: unit not given; cited from earlier work.
Data set [2] is described as follows: RF-acoustic signal characterization in tube phantom (433 MHz UHF-RF pulse). Conditions: salts 10 wt %, NaOH 4 wt %; 1 mm tubes.
Protocol: To determine the optimal composition of salt solutions for UHF-RF-acoustic contrast agents, five different salts were chosen, NaCl(aq), KI(aq), KCl(aq), MgCl2(aq), and CaCl2(aq) based on their ionic conductivity, solubility in water, and biocompatibility. NaOH(aq) was selected as a control because of its high ionic conductivity but low biocompatibility. […] Their UHF-RF-acoustic signals were measured using a prototype RF-acoustic tomography system with a nanosecond UHF-RF pulse at 433 MHz since this frequency is within the medical device radio-communications service band (MedRadio) (FIGS. 1B-1D). […] The generated RF-acoustic signals were collected by an ultrasound-linear-array transducer with a central frequency at 3.5 MHz that provides 1.2 mm imaging resolution on the transverse plane (FIGS. 1E-1F).
For comparison, a tube was included with only physiological saline (0.9 wt % of NaCl) to mimic RF-acoustic background of tissue. […]
A prototype RF-acoustic tomography imaging system (with main parts from Endra) was used to measure the RF-acoustic signal from the phantom and the mice. […] At each angle, 4095 pulses were recorded and averaged to improve the signal-to-noise ratio. […] The average energy density of a pulse at the target site was measured to be 1 mJ/cm^2, which is within the safety limit of tissue exposure. […] Acoustic signals were recorded by an ultrasound imaging system. […]

`FC1(F)C(F)(F)C(F)(F)C2(F)C(F)(F)C(F)(F)C(F)(F)C(F)(F)C2(F)C1(F)F` (centres unmarked) [Perfluorodecalin, perfluorodecalin]: the Water solubility in data set [1] is 9.90 × 10^−9. As to `[Na+].[OH-]` [NaOH(aq), sodium hydroxide, reference compound], the “RF-acoustic signal of electrolyte solutions (comparison)” value in data set [2] was “strongest RF-acoustic signal”. In the case of `[Cl-].[Na+]` [NaCl, sodium chloride], in data set [2], the “RF-acoustic signal of electrolyte solutions (comparison)” value is on record as “weaker signals than KCl”. Regarding `FC(F)(F)C(F)(F)C(F)(F)C(F)(F)C(F)(F)F` [Perfluoropentane, perfluoropentane], the Water solubility in data set [1] is reported as 4.00 × 10^−6. Turning to `FC(F)(F)C(F)(F)C(F)(F)C(F)(F)C(F)(F)C(F)(F)F` [Perfluorohexane, perfluorohexane], the Water solubility in data set [1] is 2.70 × 10^−7.
